# Experimental data reported in patent publication US20210188839A1, “COMPOUNDS AND THEIR METHODS OF USE” (Praxis Precision Medicines, Inc., priority 2016, published 2021).
# Target: T1, human Nav1.6 (hNav1.6) (Homo sapiens, UniProt Q9UQD0)
# T1 construct: expressed in transfected cells; host or cells: HEK-293
# Assay: Modulation of late sodium current (INaL), PatchXpress high throughput electrophysiology
# Type: cell-based
# Conditions: HEK293; 1 μM compound; HEK-293 cells expressing recombinant hNav1.6; late current evoked by 300 nM ATX-II
# Experimental: Functional characterization of exemplary compounds to modulate INaL expressed by the Nav1.6 voltage-gated sodium channel was accomplished using the PatchXpress' high throughput electrophysiology platform (Molecular Devices, Sunnyvale, Calif.). HEK-293 cells expressing recombinant, human Nav1.6 (hNav1.6) were grown in DMEM/high-glucose Dulbecco's modified, 10% FBS, 2 mM sodium pyruvate, 10 mM HEPES and 400 μg/mL G418. Cells were grown to 50%-80% confluency prior to harvesting. […] The onboard liquid handling facility of the PatchXpress was used for dispensing cells and applying test compounds. Nav late currents were evoked by the application of 300 nM ATX-II. […] INaL amplitude and stability were determined by analyzing the mean current amplitude over the final 20 ms of thetest pulse. […] Percent steady-state inhibition of INaL was calculated as: [(INaL_compound)/(INaL_control)]*100, where INaL_compound and INaL_control represent INaL recorded in the presence or absence of compound, respectively.
# T1 sequence (Q9UQD0 whole entry): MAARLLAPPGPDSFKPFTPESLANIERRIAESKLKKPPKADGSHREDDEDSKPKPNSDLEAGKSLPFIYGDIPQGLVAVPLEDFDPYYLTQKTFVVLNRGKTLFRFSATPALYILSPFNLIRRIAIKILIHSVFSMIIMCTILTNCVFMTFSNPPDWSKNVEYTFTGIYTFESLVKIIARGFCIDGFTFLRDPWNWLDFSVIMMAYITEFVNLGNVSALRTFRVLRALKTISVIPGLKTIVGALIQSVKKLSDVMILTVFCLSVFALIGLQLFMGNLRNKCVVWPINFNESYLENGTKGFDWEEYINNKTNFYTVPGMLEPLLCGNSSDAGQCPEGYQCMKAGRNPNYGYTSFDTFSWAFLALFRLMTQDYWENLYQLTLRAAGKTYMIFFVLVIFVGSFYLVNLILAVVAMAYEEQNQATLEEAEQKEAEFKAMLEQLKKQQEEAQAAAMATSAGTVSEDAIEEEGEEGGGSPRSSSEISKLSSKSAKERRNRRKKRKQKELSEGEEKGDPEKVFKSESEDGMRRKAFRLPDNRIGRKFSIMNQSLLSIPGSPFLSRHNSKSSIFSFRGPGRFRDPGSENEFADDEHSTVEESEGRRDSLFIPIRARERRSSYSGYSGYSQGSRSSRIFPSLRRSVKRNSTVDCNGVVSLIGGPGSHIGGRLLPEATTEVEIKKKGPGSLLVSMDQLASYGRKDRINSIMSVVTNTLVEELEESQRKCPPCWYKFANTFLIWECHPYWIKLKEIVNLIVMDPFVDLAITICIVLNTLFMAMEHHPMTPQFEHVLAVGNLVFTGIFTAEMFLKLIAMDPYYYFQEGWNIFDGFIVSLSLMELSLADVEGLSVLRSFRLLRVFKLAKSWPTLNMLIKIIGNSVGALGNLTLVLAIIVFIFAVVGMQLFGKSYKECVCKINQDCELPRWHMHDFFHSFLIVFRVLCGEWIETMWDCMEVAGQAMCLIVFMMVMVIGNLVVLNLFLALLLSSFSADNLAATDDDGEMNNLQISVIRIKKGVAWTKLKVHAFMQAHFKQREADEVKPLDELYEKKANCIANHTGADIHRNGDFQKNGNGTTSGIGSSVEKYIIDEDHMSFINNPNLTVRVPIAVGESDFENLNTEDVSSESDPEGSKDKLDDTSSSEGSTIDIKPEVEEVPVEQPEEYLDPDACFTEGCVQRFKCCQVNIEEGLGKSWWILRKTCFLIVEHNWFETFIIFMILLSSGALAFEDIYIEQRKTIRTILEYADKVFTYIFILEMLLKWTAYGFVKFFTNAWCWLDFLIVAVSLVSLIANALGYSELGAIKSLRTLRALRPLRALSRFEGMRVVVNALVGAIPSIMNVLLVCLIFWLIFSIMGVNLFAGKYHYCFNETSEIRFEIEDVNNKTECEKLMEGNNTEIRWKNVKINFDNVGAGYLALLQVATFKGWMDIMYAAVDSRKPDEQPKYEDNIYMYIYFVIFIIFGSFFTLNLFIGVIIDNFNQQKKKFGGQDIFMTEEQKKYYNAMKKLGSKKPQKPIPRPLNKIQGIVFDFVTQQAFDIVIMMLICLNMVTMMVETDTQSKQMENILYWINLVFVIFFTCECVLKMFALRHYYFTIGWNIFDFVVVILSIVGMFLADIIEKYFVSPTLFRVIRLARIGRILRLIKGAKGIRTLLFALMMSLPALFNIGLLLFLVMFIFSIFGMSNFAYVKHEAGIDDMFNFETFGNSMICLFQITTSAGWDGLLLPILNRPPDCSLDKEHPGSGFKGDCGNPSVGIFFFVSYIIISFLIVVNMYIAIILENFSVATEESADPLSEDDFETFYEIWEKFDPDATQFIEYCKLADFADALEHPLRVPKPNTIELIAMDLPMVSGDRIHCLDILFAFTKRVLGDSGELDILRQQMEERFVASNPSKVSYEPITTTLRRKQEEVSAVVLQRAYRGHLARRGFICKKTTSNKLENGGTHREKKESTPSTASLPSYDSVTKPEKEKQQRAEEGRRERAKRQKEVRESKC
row,SMILES,inhibition at 1 µM
1,FC(F)(F)Oc1ccc(-c2cnc3nccn3c2)cc1 [Compound 16],< 50%
2,"COCc1cc(OC(F)(F)F)ccc1-c1cn2c(C(F)(F)F)cnc2cn1 [Compound 41, 6-[2-(methoxymethyl)-4-(trifluoromethoxy)phenyl]-3-(trifluoromethyl)imidazo[1,2-a]pyrazine]",> 50%
3,FC(F)(F)Oc1ccc(-c2cn3ccnc3cn2)cc1 [Compound 20],< 50%
4,"Cc1cn2cc(-c3ccc(OC(F)(F)F)cc3)cnc2n1 [Compound 32, 2-methyl-6-[4-(trifluoromethoxy)phenyl]imidazo[1,2-a]pyrimidine]",< 50%
5,"COCc1cc(OC(F)(F)F)ccc1-c1cnc2ncc(C(F)(F)F)n2c1 [Compound 30, 6-[2-(methoxymethyl)-4-(trifluoromethoxy)phenyl]-3-(trifluoromethyl)imidazo[1,2-a]pyrimidine]",< 50%
6,"FC(F)(F)Oc1ccc(-c2cc3c(C(F)(F)F)cnn3cn2)cc1 [Compound 25a, 5-[4-(trifluoromethoxy)phenyl]-3-(trifluoromethyl)pyrazolo[1,5-c]pyrimidine]",> 50%
7,"FC(F)(F)Oc1ccc(-c2cc3ccnn3cn2)cc1 [Compound 24, 5-[4-(trifluoromethoxy)phenyl]pyrazolo[1,5-c]pyrimidine]",< 50%
8,"Cc1cc(OC(F)(F)F)ccc1-c1cnn2ncc(C(=O)N(C)C)c2c1 [Compound 50, N,N-dimethyl-5-[2-methyl-4-(trifluoromethoxy)phenyl]pyrazolo [1,5-b]pyridazine-3-carboxamide]",< 50%
9,"FC(F)(F)Oc1ccc(-c2cnn3nccc3c2)cc1 [Compound 28, 5-[4-(trifluoromethoxy)phenyl]pyrazolo[1,5-b]pyridazine]",< 50%
10,"FC(F)(F)COc1ccc(-c2ccn3nccc3c2)cn1 [Compound 15, 5-[6-(2,2,2-trifluoroethoxy)-3-pyridyl]pyrazolo[1,5-a]pyridine]",> 50%
11,"Fc1cc(-c2cn3c(C(F)(F)F)cnc3cn2)cnc1OCC(F)(F)F [Compound 36, 6-[5-fluoro-6-(2,2,2-trifluoroethoxy)-3-pyridyl]-3-(trifluoromethyl)imidazo[1,2-a]pyrazine]",> 50%
12,"Cc1cc(OC(F)(F)F)ccc1-c1cc2ccnn2cn1 [Compound 22, 5-[2-methyl-4-(trifluoromethoxy)phenyl]pyrazolo[1,5-c]pyrimidine]",< 50%
13,"FC(F)(F)Oc1ccc(-c2cc3c(C(F)(F)C(F)(F)F)cnn3cn2)cc1 [Compound 25b, 3-(1,1,2,2,2-pentafluoroethyl)-5-[4-(trifluoromethoxy)phenyl]pyrazolo[1,5-c]pyrimidine]",> 50%
14,"COc1cc(OC(F)(F)F)ccc1-c1ccn2ncc(C(F)(F)F)c2c1 [Compound 42, 5-[2-methoxy-4-(trifluoromethoxy)phenyl]-3-(trifluoromethyl)pyrazolo[1,5-a]pyridine]",> 50%
15,"Cc1cc(OC(F)(F)F)ccc1-c1cc2c(C(F)(F)F)cnn2cn1 [Compound 23, 5-[2-methyl-4-(trifluoromethoxy)phenyl]-3-(trifluoromethyl)pyrazolo[1,5-c]pyrimidine]",< 50%
16,"N#CC1(c2ccc(-c3ccn4ncc(C(F)(F)F)c4c3)cc2)CC1 [Compound 43, 1-[4-[3-(trifluoromethyl)pyrazolo[1,5-a]pyridin-5-yl]phenyl]cyclopropanecarbonitrile]",< 50%
17,"COc1cc(OC(F)(F)F)ccc1-c1ccn2nccc2c1 [Compound 14, 5-[2-methoxy-4-(trifluoromethoxy)phenyl]pyrazolo[1,5-a]pyridine]",> 50%
18,"FC(F)(F)Oc1ccc(-c2cnn3ncc(C(F)(F)F)c3c2)cc1 [Compound 29, 5-[4-(trifluoromethoxy)phenyl]-3-(trifluoromethyl)pyrazolo[1,5-b]pyridazine]",> 50%
19,"Cc1cc(OC(F)(F)F)ccc1-c1cnn2ncc(C(F)(F)F)c2c1 [Compound 27, 5-[2-methyl-4-(trifluoromethoxy)phenyl]-3-(trifluoromethyl)pyrazolo[1,5-b]pyridazine]",< 50%
20,"Cc1cc(OC(F)(F)F)ccc1-c1cnn2nccc2c1 [Compound 26, 5-[2-methyl-4-(trifluoromethoxy)phenyl]pyrazolo[1,5-b]pyridazine]",< 50%
21,FC(F)(F)Oc1ccc(-c2ccc3nccn3n2)cc1 [Compound 18],< 50%
22,"FC(F)(F)COc1ccc(-c2ccn3ncc(C(F)(F)F)c3c2)cn1 [Compound 45, 5-[6-(2,2,2-trifluoroethoxy)-3-pyridyl]-3-(trifluoromethyl)pyrazolo[1,5-a]pyridine]",> 50%

# Next, values leading:
row,inhibition at 1 µM,SMILES
1,> 50%,FC(F)(F)COc1ccc(-c2ccc3ncc(C(F)(F)F)n3c2)cn1 [Compound 3]
2,< 50%,N#CC1(c2ccc(-c3ccc4ncc(C(F)(F)F)n4c3)cc2)CC1 [Compound 5]
3,< 50%,"Cc1cc(OC(F)(F)F)ccc1-c1cnc2ncc(C(F)(F)F)n2c1 [Compound 31, 6-[2-methyl-4-(trifluoromethoxy)phenyl]-3-(trifluoromethyl)imidazo[1,2-a]pyrimidine]"
4,> 50%,COc1cc(OC(F)(F)F)ccc1-c1ccc2ncc(C(F)(F)F)n2c1 [Compound 2]
5,> 50%,"FC(F)(F)c1ccc(-c2cn3c(C(F)(F)F)cnc3cn2)cc1 [Compound 34, 3-(trifluoromethyl)-6-[4-(trifluoromethyl)phenyl]imidazo[1,2-a]pyrazine]"
6,< 50%,"COC(C)(C)c1ccc(-c2ccn3ncc(C(F)(F)F)c3c2)cc1 [Compound 44, 5-[4-(1-methoxy-1-methyl-ethyl)phenyl]-3-(trifluoromethyl)pyrazolo[1,5-a]pyridine]"
7,> 50%,FC(F)(F)Oc1ccc(-c2cn3c(C(F)(F)F)cnc3cn2)cc1 [Compound 21]
8,< 50%,FC(F)(F)Oc1ccc(-c2cnc3ncc(C(F)(F)F)n3c2)cc1 [Compound 17]
9,< 50%,"N#CC1(c2ccc(-c3cn4c(C(F)(F)F)cnc4cn3)cc2)CC1 [Compound 35, 1-[4-[3-(trifluoromethyl)imidazo[1,2-a]pyrazin-6-yl]phenyl]cyclopropanecarbonitrile]"
10,< 50%,"Cc1nc2ncc(-c3ccc(OC(F)(F)F)cc3)cn2c1C(F)(F)F [Compound 33, 2-methyl-6-[4-(trifluoromethoxy)phenyl]-3-(trifluoromethyl)imidazo[1,2-a]pyrimidine]"
11,< 50%,FC(F)(F)Oc1ccc(-c2ccc3nccn3c2)cc1 [Compound 6]
12,< 50%,FC(F)(F)Oc1ccc(-c2ccc3ncc(C(F)(F)F)n3n2)cc1 [Compound 19]
13,> 50%,COC(C)(C)c1ccc(-c2ccc3ncc(C(F)(F)F)n3c2)cc1 [Compound 4]
